Assays:
Format in all cases: functional
SK-OV-3 = assay: Growth inhibition of human SK-OV-3 cells after 48 hrs by SRB protein assay; conditions: SK-OV-3, 48 h
UO-31 = assay: Growth inhibition of human UO31 cells after 48 hrs by SRB protein assay; conditions: UO-31, 48 h
MCF7 = assay: Growth inhibition of human MCF7 cells after 48 hrs by SRB protein assay; conditions: MCF7, 48 h
HT-29 = assay: Growth inhibition of human HT29 cells after 48 hrs by SRB protein assay; conditions: HT-29, 48 h
MDA-MB-231 = assay: Growth inhibition of human MDA-MB-231 cells after 48 hrs by SRB protein assay; conditions: MDA-MB-231, 48 h
U-251 = assay: Growth inhibition of human U251 cells after 48 hrs by SRB protein assay; conditions: U-251, 48 h; for CC50: read-out: LC50 (the source's name)
ACHN = assay: Growth inhibition of human ACHN cells after 48 hrs by SRB protein assay
SF-268 = assay: Growth inhibition of human SF268 cells after 48 hrs by SRB protein assay; conditions: SF-268, 48 h
CCRF-CEM = assay: Growth inhibition of human CCRF-CEM cells after 48 hrs by SRB protein assay; conditions: for CC50: read-out: LC50 (the source's name)
SK-MEL-2 = assay: Growth inhibition of human SK-MEL-2 cells after 48 hrs by SRB protein assay; conditions: SK-MEL-2, 48 h; for CC50: read-out: LC50 (the source's name)
OVCAR-4 = assay: Growth inhibition of human OVCAR4 cells after 48 hrs by SRB protein assay; conditions: OVCAR-4, 48 h
OVCAR-3 = assay: Growth inhibition of human OVCAR-3 cells after 48 hrs by SRB protein assay; conditions: OVCAR-3, 48 h
[1] = Growth inhibition of human NCL-H322M cells after 48 hrs by SRB protein assay; conditions: for CC50: read-out: LC50 (the source's name)
SNB-19 = assay: Growth inhibition of human SNB19 cells after 48 hrs by SRB protein assay; conditions: SNB-19, 48 h; for CC50: read-out: LC50 (the source's name)
[2] = Growth inhibition of human NCL-H522 cells after 48 hrs by SRB protein assay; conditions: NCL-H522, 48 h
SF-295 = assay: Growth inhibition of human SF295 cells after 48 hrs by SRB protein assay; conditions: SF-295, 48 h
SN12C = assay: Growth inhibition of human SN12C cells after 48 hrs by SRB protein assay
[3] = Growth inhibition of human LOX MIVI cells after 48 hrs by SRB protein assay
786-0 = assay: Growth inhibition of human 786-0 cells after 48 hrs by SRB protein assay; conditions: 786-0, 48 h; for CC50: read-out: LC50 (the source's name)
NCI-H460 = assay: Anticancer activity against human NCL-H460 cells assessed as growth at 100 uM after 48 hrs by SRB protein assay relative to control; conditions: NCI-H460, 48 h, read-out: Activity
CAKI-1 = assay: Growth inhibition of human CAKI1 cells after 48 hrs by SRB protein assay; conditions: CAKI-1, 48 h; for CC50: read-out: LC50 (the source's name)
IGROV-1 = assay: Growth inhibition of human IGROV1 cells after 48 hrs by SRB protein assay; conditions: IGROV-1, 48 h
MDA-MB-435 = assay: Growth inhibition of human MDA-MB-435 cells after 48 hrs by SRB protein assay; conditions: MDA-MB-435, 48 h
HCC 2998 = assay: Growth inhibition of human HCC2998 cells after 48 hrs by SRB protein assay; conditions: HCC 2998, 48 h
HCT-116 = assay: Growth inhibition of human HCT116 cells after 48 hrs by SRB protein assay; conditions: HCT-116, 48 h; for CC50: read-out: LC50 (the source's name)
NCI/ADR-RES = assay: Growth inhibition of human NCI/ADR-RES cells after 48 hrs by SRB protein assay

With `Clc1nc(Cl)c2ncn(Cc3ccccc3Cn3cnc4c(Cl)nc(Cl)nc43)c2n1` the GI50 (SK-OV-3) was 11.5 µM, the TGI (SK-OV-3) was 31.6 µM and the CC50 (SK-OV-3; read-out: LC50 (the source's name)) was 87.1 µM. It also gave a GI50 (UO-31) of 1.95 µM, an LC50 (UO-31) of 7.41 µM and a TGI (UO-31) of 3.8 µM. For the same molecule, the GI50 (MCF7) was 1.55 µM, the LC50 (MCF7) was greater than 100 µM and the TGI (MCF7) was 4.57 µM. The GI50 (HT-29) was 3.31 µM, the LC50 (HT-29) was greater than 100 µM and the TGI (HT-29) was greater than 100 µM. It also gave a GI50 (MDA-MB-231) of 1.82 µM, an LC50 (50% lethal concentration) (MDA-MB-231) of 6.46 µM and a TGI (MDA-MB-231) of 3.39 µM. It also gave a GI50 (U-251) of 1.78 µM, a TGI (U-251) of 3.55 µM and a CC50 (U-251) of 69.2 µM. For the same molecule, the GI50 (ACHN) was 1.77 µM, the LC50 (ACHN) was 5.75 µM and the TGI (ACHN) was 3.24 µM. For the same molecule, the GI50 (SF-268) was 6.76 µM, the LC50 (SF-268) was 95.5 µM and the TGI (SF-268) was 26.9 µM. It also gave a GI50 (CCRF-CEM) of 1.41 µM, a TGI (CCRF-CEM) of 3.09 µM and a CC50 (CCRF-CEM) of 6.61 µM. For the same molecule, the GI50 (SK-MEL-2) was 6.31 µM, the TGI (SK-MEL-2) was 26.9 µM and the CC50 (SK-MEL-2) was greater than 100 µM. The GI50 (OVCAR-4) was 2.09 µM, the LC50 (OVCAR-4) was 8.71 µM and the TGI (OVCAR-4) was 4.23 µM. The GI50 (OVCAR-3) was 1.66 µM, the LC50 (OVCAR-3) was 5.5 µM and the TGI (OVCAR-3) was 3.02 µM. For the same molecule, the GI50 [1] was 14.5 µM, the TGI [1] was 27.5 µM and the CC50 [1] was 52.5 µM. For the same molecule, the GI50 (SNB-19) was 3.98 µM, the TGI (SNB-19) was greater than 100 µM and the CC50 (SNB-19) was greater than 100 µM. The GI50 [2] was 3.39 µM, the LC50 [2] was greater than 100 µM and the TGI [2] was 9.12 µM. For the same molecule, the GI50 (SF-295) was 15.1 µM, the LC50 (SF-295) was 57.3 µM and the TGI (SF-295) was 28.2 µM. The GI50 (SN12C) was 2.51 µM, the LC50 (SN12C) was 26.9 µM and the TGI (SN12C) was 6.61 µM. It also gave a GI50 [3] of 1.15 µM, an LC50 [3] of 6.61 µM and a TGI [3] of 2.75 µM. It also gave a GI50 (786-0) of 10 µM, a TGI (786-0) of 25.1 µM and a CC50 (786-0) of 63.1 µM. For the same molecule, the growth at 100 µM (NCI-H460) was 0%, the GI50 (CAKI-1) was 1.73 µM and the TGI (CAKI-1) was 3.09 µM. For the same molecule, the CC50 (CAKI-1) was 5.62 µM, the GI50 (IGROV-1) was 5.25 µM and the LC50 (50% lethal concentration) (IGROV-1) was 57.5 µM. The TGI (IGROV-1) was 17.8 µM, the GI50 (MDA-MB-435) was 2.4 µM and the LC50 (MDA-MB-435) was 17.4 µM. The TGI (MDA-MB-435) was 5.5 µM, the LC50 (HCC 2998) was 21.4 µM and the TGI (HCC 2998) was 4.9 µM. It also gave a GI50 (HCT-116) of 3.31 µM, a TGI (HCT-116) of 13.8 µM and a CC50 (HCT-116) greater than 100 µM. The GI50 (NCI/ADR-RES) was 20.4 µM, the LC50 (NCI/ADR-RES) was 91.2 µM and the TGI (NCI/ADR-RES) was 43.6 µM.

Molecule `Clc1nc(Cl)c2ncn(Cc3cccc(Cn4cnc5c(Cl)nc(Cl)nc54)c3)c2n1` has a GI50 (UO-31) of 1.9 µM, an LC50 (UO-31) of 6.6 µM and a TGI (UO-31) of 3.54 µM. For the same molecule, the GI50 (MCF7) was 3.63 µM, the LC50 (MCF7) was greater than 100 µM and the TGI (MCF7) was 37.1 µM. For the same molecule, the GI50 (HT-29) was 4.46 µM, the LC50 (HT-29) was greater than 100 µM and the TGI (HT-29) was greater than 100 µM. The GI50 (MDA-MB-231) was 2.63 µM, the LC50 (50% lethal concentration) (MDA-MB-231) was 30.2 µM and the TGI (MDA-MB-231) was 7.07 µM. For the same molecule, the GI50 (U-251) was 3.89 µM, the TGI (U-251) was 13.8 µM and the CC50 (U-251) was 38.9 µM. It also gave a GI50 (ACHN) of 2.51 µM, an LC50 (ACHN) of 21.4 µM and a TGI (ACHN) of 6.16 µM. For the same molecule, the GI50 (SF-268) was 12.9 µM, the LC50 (SF-268) was 75.9 µM and the TGI (SF-268) was 31.6 µM. For the same molecule, the GI50 (CCRF-CEM) was 2.23 µM, the TGI (CCRF-CEM) was 5.37 µM and the CC50 (CCRF-CEM) was greater than 100 µM. The GI50 (SK-MEL-2) was 2.81 µM, the TGI (SK-MEL-2) was 7.76 µM and the CC50 (SK-MEL-2) was 35.5 µM. It also gave a GI50 (OVCAR-4) of 15.1 µM, an LC50 (OVCAR-4) of 55 µM and a TGI (OVCAR-4) of 28.8 µM. For the same molecule, the GI50 (OVCAR-3) was 2.39 µM, the LC50 (OVCAR-3) was 28.2 µM and the TGI (OVCAR-3) was 7.24 µM. The GI50 [1] was 14.1 µM, the TGI [1] was 27.5 µM and the CC50 [1] was 52.5 µM. The GI50 (SNB-19) was 3.02 µM, the TGI (SNB-19) was 13.8 µM and the CC50 (SNB-19) was 60.2 µM. For the same molecule, the GI50 [2] was 2.88 µM, the LC50 [2] was 41.7 µM and the TGI [2] was 7.07 µM. It also gave a GI50 (SF-295) of 16.6 µM, an LC50 (SF-295) of 57.5 µM and a TGI (SF-295) of 30.9 µM. The GI50 (SN12C) was 4.67 µM, the LC50 (SN12C) was 60.2 µM and the TGI (SN12C) was 18.2 µM. It also gave a GI50 [3] of 2.23 µM, an LC50 [3] of 21.9 µM and a TGI [3] of 5.62 µM. It also gave a GI50 (786-0) of 12.3 µM, a TGI (786-0) of 26.3 µM and a CC50 (786-0) of 57.5 µM. For the same molecule, the growth at 100 µM (NCI-H460) was 0%, the GI50 (CAKI-1) was 12 µM and the TGI (CAKI-1) was 26.3 µM. The CC50 (CAKI-1) was 57.5 µM, the GI50 (IGROV-1) was 7.41 µM and the LC50 (50% lethal concentration) (IGROV-1) was 47.9 µM. For the same molecule, the TGI (IGROV-1) was 20.4 µM, the GI50 (MDA-MB-435) was 7.24 µM and the LC50 (MDA-MB-435) was 58.9 µM. For the same molecule, the TGI (MDA-MB-435) was 22.4 µM, the GI50 (HCC 2998) was 2.39 µM and the LC50 (HCC 2998) was 25.7 µM. It also gave a TGI (HCC 2998) of 7.07 µM, a GI50 (HCT-116) of 5.75 µM and a TGI (HCT-116) of 22.4 µM. For the same molecule, the CC50 (HCT-116) was 9.33 µM, the GI50 (NCI/ADR-RES) was 12.6 µM and the LC50 (NCI/ADR-RES) was 97.7 µM. For the same molecule, the TGI (NCI/ADR-RES) was 34.7 µM.

— ChEMBL document CHEMBL1143809, “New bis-N9-(methylphenylmethyl)purine derivatives: synthesis and antitumor activity” (2007)
